Data taken from patent US20200275656A1, “TRISUBSTITUTEDSILYLMETHYLPHENOXYQUINOLINES AND ANALOGUES” (Bayer Aktiengesellschaft, priority 2017, published 2020).

Experiments:
[1] = log P determination by HPLC on reversed-phase column (C 18), EEC Directive 79/831 Annex V.A8; type: physicochemical; conditions: for chromatographic logP: reversed-phase HPLC column (C 18)
Description: In table 1, the log P values were determined in accordance with EEC Directive 79/831 Annex V.A8 by HPLC (High Performance Liquid Chromatography) on a reversed-phase column (C 18), using the method described below:
temperature: 40° C.; mobile phases: 0.1% aqueous formic acid and acetonitrile; linear gradient from 10% acetonitrile to 95% acetonitrile; Calibration was carried out using unbranched alkan-2-ones (comprising 3 to 16 carbon atoms) with known log P values (determination of the log P values by the retention times using linear interpolation between two successive alkanones). lambda-max-values were determined using UV-spectra from 200 nm to 400 nm and the peak values of the chromatographic signals.

[2] = test system: Colletotrichum lindemuthianum; assay: Example B: in vitro cell test on Colletotrichum lindemuthianum; type: cell-based; conditions: 120 h, 20 ppm of active ingredient, liquid culture, 5 days incubation, read-out: efficacy (inhibition of fungal growth)
Pyricularia oryzae = assay: microbe, parasite or virus in culture; type: cell-based; conditions: 120 h, read-out: efficacy (inhibition of fungal growth)
[3] = Table 1, HPLC, 40° C., 0.1% aqueous formic acid and acetonitrile
[4] = Table 2, compounds of formula (IIa), defined as for table 1

Compound | logP [1, 3] | other results
COc1ccc([Si](C)(C)Cc2ccccc2Oc2cnc3c(F)cccc3c2)cc1 [I.59] | 5.62 | 
C=C[Si](C)(C)Cc1c(Cl)cccc1Oc1cnc2ccccc2c1 [I.27] | 6.11 | 
C[Si](C)(C)Cc1ccccc1Nc1cnc2c(F)cccc2c1 [I.09] | 4.77 | 
C=C[Si](C)(C)Cc1ccccc1Oc1cnc2c(F)cccc2c1 [I.14] | 5.45 | 
Cc1cccc2cc(Nc3ccc(C[Si](C)(C)C)cc3C[Si](C)(C)C)cnc12 [I.54] | 6.93 | 
ClCc1c(Cl)cccc1Oc1cnc2ccccc2c1 [IIa.01, 3-[3-chloro-2-(chloromethyl)phenoxy]quinoline] |  | chromatographic logP [1, 4]: 3.94
C[Si](C)(Cc1cc(Cl)ccc1Nc1cnc2ccccc2c1)c1ccccc1 [I.52] | 4.69 | 
Cc1nc2c(F)c(F)ccc2nc1Oc1cccc(Cl)c1C[Si](C)(C)C [I.44] | 6.40 | 
C[Si](C)(Cc1cc(F)ccc1Nc1cnc2ccccc2c1)c1ccccc1 [I.39] | 3.99 | 
C[Si](C)(C)Cc1c(F)cccc1Oc1cnc2c(C(F)(F)F)cccc2c1 [I.45] | 6.32 | 
C[Si](C)(C)Cc1ccc(Nc2cnc3c(C(F)(F)F)cccc3c2)c(C[Si](C)(C)C)c1 [I.65] | 7.36 | 
C[Si](C)(C)Cc1ccccc1Oc1cnc2c(C(F)(F)F)cccc2c1 [I.35] | 6.28 | 
C[Si](C)(O)Cc1c(F)cccc1Oc1cnc2ccccc2c1 [I.13] | 3.15 | 
Cc1nc2c(F)c(F)ccc2nc1Oc1cccc(Cl)c1C[Si](C)(C)O [I.49] | 4.13 | 
Cc1cccc2cc(Oc3ccccc3C[Si](C)(C)C)cnc12 [I.06] | 6.60 | 
Cc1cccc2cc(Oc3cccc(F)c3C[Si](C)(C)C)cnc12 [I.19] | 6.70 | 
C[Si](C)(C)Cc1ccccc1Oc1cnc2c(F)cccc2n1 [I.12] | 5.26 | 
COc1ccc([Si](C)(C)Cc2c(F)cccc2Oc2cnc3ccccc3c2)cc1 [I.60] | 5.65 | 
C[Si](C)(C)Cc1cc(Cl)ccc1Nc1cnc2ccccc2c1 [I.21] | 4.39 | 
C[Si](C)(C)Cc1ccccc1Oc1cnc2c(F)c(F)ccc2c1 [I.24] | 5.72 | 
C[Si](C)(Cc1c(Cl)cccc1Oc1cnc2ccccc2c1)c1ccccc1 [I.53] | 6.43 | 
Cc1nc2c(F)c(F)ccc2cc1Nc1ccccc1C[Si](C)(C)C [I.30] | 5.32 | 
C[Si](C)(C)Cc1cc(F)ccc1Nc1cnc2ccccc2c1 [I.08] | 3.69 | 

Compound | logP [1, 3] | other results
Cc1nc2ccccc2cc1Oc1ccc(F)cc1C[Si](C)(C)C [I.20] | 5.01 | 
Cc1nc2ccccc2cc1Oc1cccc(F)c1C[Si](C)(C)C [I.18] | 5.38 | 
C[Si](C)(Cc1c(Cl)cccc1Oc1cnc2ccccc2c1)c1cccs1 [I.56] | 6.20 | 
Cc1cccc2cc(Nc3ccc(F)cc3C[Si](C)(C)c3ccccc3)cnc12 [I.50] | 4.90 | 
Fc1cccc(Oc2cnc3ccccc3c2)c1CCl [IIa.02, 3-[2-(chloromethyl)-3-fluorophenoxy]quinoline] |  | chromatographic logP [1, 4]: 3.57
C[Si](C)(C)Cc1c(F)cccc1Oc1cnc2c(F)c(F)ccc2n1 [I.33] | 5.60 | 
Cc1cccc2cc(Oc3cccc(F)c3C[Si](C)(C)c3ccccc3)cnc12 [I.51] | 6.90 | 
C[Si](C)(Cc1ccccc1Oc1cnc2c(F)cccc2c1)c1ccccc1 [I.40] | 5.78 | 
Cc1nc2ccccc2nc1Oc1ccccc1C[Si](C)(C)C [I.07] | 5.59 | 
C[Si](C)(C)Cc1ccccc1Oc1cnc2c(C(F)(F)F)cccc2n1 [I.37] | 5.97 | 
COc1ccccc1[Si](C)(C)Cc1c(Cl)cccc1Oc1cnc2ccccc2c1 [I.62] | 6.50 | 
C[Si](C)(O)Cc1ccccc1Cc1cnc2ccccc2c1 [I.03] | 2.13 | 
Cc1nc2c(F)c(F)ccc2cc1Oc1ccc(F)cc1C[Si](C)(C)C [I.34] | 5.92 | 
Cc1cccc2cc(Nc3ccc(Cl)cc3C[Si](C)(C)C)cnc12 [I.28] | 5.38 | 
C[Si](C)(C)Cc1ccccc1Cc1cnc2ccccc2c1 [I.01] | 4.28 | 
Cc1cccc2cc(Nc3ccc(Cl)cc3C[Si](C)(C)c3ccccc3)cnc12 [I.58] | 5.68 | 
C[Si](C)(C)Cc1ccc(Nc2cnc3ccccc3c2)c(C[Si](C)(C)C)c1 [I.43] | 5.85 | 
Fc1cccc2cc(Oc3ccccc3CBr)cnc12 [IIa.03, 3-[2-(bromomethyl)phenoxy]-8-fluoroquinoline] |  | chromatographic logP [1, 4]: 3.58; chromatographic logP ([1]; stated in preparation examples): 3.65
C[Si](C)(C)Cc1ccccc1Oc1cnc2ccccc2c1 [I.02] | 5.48 | 
Cc1nc2c(F)cccc2cc1Oc1ccccc1C[Si](C)(C)C [I.17, 8-fluoro-2-methyl-3-{2-[(trimethylsilyl)methyl]phenoxy}quinoline] |  | chromatographic logP [1, 3]: 5.85; chromatographic logP ([1]; stated in preparation examples): 5.85
Cc1nc2c(F)c(F)ccc2nc1Oc1ccccc1C[Si](C)(C)C [I.32] | 5.81 | 
C[Si](C)(C)Cc1c(F)cccc1Oc1cnc2c(C(F)(F)F)cccc2n1 [I.48] | 6.04 | 
C=C[Si](C)(C)Cc1c(F)cccc1Oc1cnc2ccccc2c1 [I.15] | 5.57 | 

Compound | logP [1, 3] | other results
C[Si](C)(C)Cc1ccccc1Oc1cnc2c(F)cccc2c1 [I.10] | 5.45 | 
COc1ccccc1[Si](C)(C)Cc1c(F)cccc1Oc1cnc2ccccc2c1 [I.61] | 6.01 | 
C[Si](C)(C)Cc1cc(Cl)ccc1Nc1cnc2c(C(F)(F)F)cccc2c1 [I.55] | 6.00 | 
Cc1nc2ccccc2cc1Oc1ccc(Cl)cc1C[Si](C)(C)C [I.29] | 5.71 | 
C[Si](C)(O)Cc1c(Cl)cccc1Oc1cnc2ccccc2c1 [I.25, [2-chloro-6-(quinolin-3-yloxy)benzyl](dimethyl)silanol] |  | inhibition at 20 ppm [2]: 90 to 100%; chromatographic logP [1, 3]: 3.48; chromatographic logP ([1]; stated in preparation examples): 3.48
C[Si](C)(C)Cc1ccccc1Nc1cnc2c(F)c(F)ccc2c1 [I.23] | 5.03 | 
C[Si](C)(Cc1ccccc1Oc1cnc2c(F)cccc2c1)c1cccs1 [I.46, 3-(2-{[dimethyl(2-thienyl)silyl]methyl}phenoxy)-8-fluoroquinoline] |  | inhibition at 20 ppm [2]: 90 to 100%; inhibition at 20 ppm (Pyricularia oryzae): 90 to 100%; chromatographic logP [1, 3]: 5.6; chromatographic logP ([1]; stated in preparation examples): 5.6
COc1ccc([Si](C)(C)Cc2c(Cl)cccc2Oc2cnc3ccccc3c2)cc1 [I.63] | 6.20 | 
Cc1nc2c(F)c(F)ccc2nc1Oc1c(F)cccc1C[Si](C)(C)C [I.36] | 5.87 | 
C[Si](C)(C)Cc1c(F)cccc1Oc1cnc2ccccc2c1 [I.11] | 5.54 | 
C[Si](C)(C)Cc1ccccc1Oc1cnc2ccccc2n1 [I.04] | 5.36 | 
C[Si](C)(C)Cc1ccccc1Oc1cnc2c(F)c(F)ccc2n1 [I.26] | 5.54 | 
OCc1ccccc1Oc1cnc2c(F)cccc2c1 [V.01, {2-[(8-fluoroquinolin-3-yl)oxy]phenyl}methanol] |  | chromatographic logP ([1]; Table 3, compounds of formula (V), defined as for table 1): 2.17
C[Si](C)(C)Cc1cc(F)ccc1Nc1cnc2c(C(F)(F)F)cccc2c1 [I.42] | 5.54 | 
Cc1nc2ccccc2cc1Oc1ccccc1C[Si](C)(C)C [I.05, 2-methyl-3-{2-[(trimethylsilyl)methyl]phenoxy}quinoline] |  | inhibition at 20 ppm [2]: 90 to 100%; inhibition at 20 ppm (Pyricularia oryzae): 90 to 100%; chromatographic logP [1, 3]: 5.05; chromatographic logP ([1]; stated in preparation examples): 5.05
C[Si](C)(C)Cc1c(Cl)cccc1Oc1cnc2c(C(F)(F)F)cccc2n1 [I.57] | 6.51 | 
C[Si](C)(Cc1c(F)cccc1Oc1cnc2ccccc2c1)c1cccs1 [I.47] | 5.65 | 
C[Si](C)(C)Cc1c(Cl)cccc1Oc1cnc2ccccc2c1 [I.22] | 6.17 | 
C[Si](C)(Cc1c(F)cccc1Oc1cnc2ccccc2c1)c1ccccc1 [I.41] | 5.91 | 
Cc1cccc2cc(Oc3ccccc3C[Si](C)(C)c3ccccc3)cnc12 [I.38] | 6.83 | 
Cc1cccc2cc(Nc3ccc(F)cc3C[Si](C)(C)C)cnc12 [I.16] | 4.56 | 
